Data reported in patent publication US12194004B2, “Nano-delivery carrier for targeted tumor administration and application thereof” (Guizhou Provincial People's Hospital, priority 2023, dated 2025).

Test system: SKOV3 cells
Test: Cell viability detection with CCK-8 detection reagent
Assay type: cell-based
Conditions: SKOV3 cells treated at different (increasing) concentrations for 24 h
Description: In order to verify whether RVT can cause death of the tumor cells, SKOV3 cells are treated with RVT at different concentrations for 24 h, and viability of the SKOV3 cells treated with RVT is detected by using a cell counting kit-8 (CCK-8) detection reagent.
In addition, the SKOV3 cells are treated with PEG-SPIO at different concentrations for 24 h, and the viability of the SKOV3 cells treated with PEG-SPIO is detected by using the CCK-8 detection reagent.
Furthermore, the SKOV3 cells are treated with RVT-encapsulated PEG-SPIO-RVT nanoparticles for 24 h, and the viability of the SKOV3 cells treated with RVT-encapsulated PEG-SPIO-RVT nanoparticles is detected by using the CCK-8 detection reagent. The results are the same as that of treating with RVT alone.

Oc1ccc(/C=C/c2cc(O)cc(O)c2)cc1 [RVT, 3,4′,5-trihydroxy-trans-stilbene]
viability of the SKOV3 cells: gradually shows a downward trend
